Measurements: ChEMBL document CHEMBL6177984, “Pyrazolo[1,5-a]pyrimidine-Based Type-I Photosensitizer as an Efficient Pyroptosis Inducer for Tumor Ablation” (J Med Chem, 2025)
Calls of active or inactive are those of the source. No cut-off for these calls is given here.

Assays:
MDA-MB-231 [1] = experiment: Dark cytotoxicity against human MDA-MB-231 cells assessed as cell viability at 1 uM incubated for 24 hrs by CCK8 assay; type: toxicity, cell-based; settings: mda-mb-231, 24 h
MDA-MB-231 [2] = experiment: Photocytotoxicity in human MDA-MB-231 cells assessed as cell viability preincubated with compound for 1 hr followed by light irradiated with 400 to 700 nm 100 mW/cm^2 for 10 mins and measured after 24 hrs by CCK-8 assay; type: functional, cell-based; settings: MDA-MB-231, light or radiation study
[3] = Dark cytotoxicity against human MDA-MB-231 cells assessed as cell viability incubated for 24 hrs by CCK8 assay; type: toxicity, cell-based
MDA-MB-231 [4] = experiment: Photocytotoxicity in human MDA-MB-231 cells assessed as cell viability at 1 uM preincubated with compound for 1 hr followed by light irradiated with 400 to 700 nm 100 mW/cm^2 for 10 mins and measured after 24 hrs by CCK-8 assay; type: functional, cell-based; settings: time 1510.0 min

Q: With CC[n+]1ccc(/C=C/c2ccc(-c3cnn4ccc(N5CCOCC5)nc34)s2)cc1.[Br-] as the molecule, how does the Activity (MDA-MB-231 [1]) read?
A: Non-toxic

Q: And the IC50 (MDA-MB-231 [2])?
A: > 10000 nM

Q: And the IC50 at 24 h [3]?
A: > 10000 nM

Q: With C[N+]1=C(/C=C/c2ccc(-c3cnn4ccc(N5CCOCC5)nc34)s2)C(C)(C)c2ccccc21 as the molecule, how does the Activity (MDA-MB-231 [4]) read?
A: Active

Q: What about the IC50 (MDA-MB-231 [2]) of the same molecule?
A: 330 nM

Q: And the IC50 at 24 h [3]?
A: > 10000 nM

Q: With CC[N+]1=C(/C=C/c2ccc(-c3cnn4ccc(N5CCOCC5)nc34)s2)C(C)(C)c2cc(I)ccc21 as the molecule, how does the Activity (MDA-MB-231 [4]) read?
A: Active

Q: What about the IC50 (MDA-MB-231 [2]) of the same molecule?
A: 280 nM

Q: And the IC50 at 24 h [3]?
A: > 10000 nM

Q: For CC[n+]1ccc(/C=C/c2ccc(-c3cnn4ccc(N5CCOCC5)nc34)s2)c2ccccc21, which IC50 (MDA-MB-231 [2]) is on record?
A: 920 nM

Q: And the IC50 at 24 h [3]?
A: > 10000 nM
